# From patent publication US20120225921A1, “METHOD OF CONTROLLING PHYTOPATHOGENIC DISEASES ON TURFGRASS” (SYNGENTA CROP PROTECTION, LLC, priority 2006, published 2012)
# Experiments:
# Assay type in all cases: in vivo
# Sclerotinia homoeocarpa [1] = test: Control of Sclerotinia homoeocarpa on Creeping Bentgrass (Example B-1, plot spray treatment); settings: 500 g ai/ha, sprayed three times every 14 days, assessed 19 days after last treatment, vs untreated (60% diseased)
# Experimental: The following EC formulations were prepared: […]
# (§1) Plots were inoculated with Creeping Bentgrass (Agrostis palustris Huds.) seeds infested with Sclerotinia homoeocarpa, and a quantity of formulations A and B which corresponds to a dose shown in the table below and expressed in g/ha was sprayed on the plots. This treatment was repeated three times at an interval of 1 treatment every 14 days. 19 days after the last treatment, the disease incidence and severity was assessed visually. […] Disease control is shown as % disease control compared to untreated Creeping Bentgrass.
# Sclerotinia homoeocarpa [2] = test: Control of Sclerotinia homoeocarpa on Kentucky Bluegrass (Example B-2, plot spray treatment); settings: 500 g ai/ha, sprayed three times every 14 days, assessed 19 days after last treatment, vs untreated (58% diseased)
# Experimental: as §1, with “Kentucky Bluegrass (Poa pratensis L.)” for “Creeping Bentgrass (Agrostis palustris Huds.)”, “Kentucky Bluegrass.” for “Creeping Bentgrass.”
# [3] = tested on: Colletotrichum graminicola; test: Control of Colletotrichum graminicola on Annual Bluegrass/Creeping Bentgrass (Example B-3); settings: 500 g ai/ha; application interval 21 days, three sprays; assessed 10 days after final application; Poa/Bentgrass, natural infection; vs untreated (44% diseased)
# Experimental: The following EC formulation was prepared: […]
# Plots of a mixture of Annual Bluegrass (Poa annua) and Creeping Bentgrass (Agrostis stolifera) naturally infected with anthracnose (Colletotrichum graminicola) were treated with quantities of formulation C which correspond to a dose shown in the table below and expressed in g ai/ha. The dose corresponding to 250 g ai/ha was sprayed four times with an interval of 14 days. The dose corresponding to 500 g ai/ha was sprayed three times with an interval of 21 days. At 23 days after the final application with the 250 g ai/ha dose, and 10 days after the final application with the 500 g ai/ha dose, disease severity was assessed visually. […] Disease control is shown as % disease control compared to untreated plots.
# Rhizoctonia solani = test: Control of Rhizoctonia solani on Colonial Bentgrass (Example B-4); settings: 302 g ai/ha, application interval 14 days, three sprays, assessed 21 days after final application, natural infection, vs untreated (80% diseased)
# Experimental: Plots of Colonial Bentgrass (Agrostis tenius Sibth.) naturally infected with brown patch (Rhizoctonia solani) were treated with quantities of formulation C which correspond to a dose shown in the table below and expressed in g ai/ha. The dose corresponding to 302 g ai/ha was sprayed three times with an interval of 14 days. The dose corresponding to 604 g ai/ha was sprayed two times with an interval of 28 days. At 21 days after the final application of both dose rates, disease severity was assessed visually. […] Disease control is shown as % disease control compared to untreated plots.
Structure (SMILES),% Disease Control (Sclerotinia homoeocarpa [1]) [%],% Disease Control (Sclerotinia homoeocarpa [2]) [%],% Disease Control [3] [%],% Disease Control (Rhizoctonia solani) [%]
CC(C)C1C2CCC1c1c(NC(=O)c3cn(C)nc3C(F)F)cccc12 (racemic) [Compound IAc],93,88,92,97
"CC(C)CC(C)c1sccc1NC(=O)c1cn(C)nc1C(F)(F)F (stereo not drawn) [Penthiopyrad, N-[2-(1,3-dimethylbutyl)-3-thienyl]-1-methyl-3-(trifluoromethyl)-1H-pyrazole-4-carboxamide, reference compound]",57,21,,
